Test results taken from patent US9713616B2, “Pharmaceutical compositions comprising L-leucovorin” (Spectrum Pharmaceuticals, Inc., priority 2012, dated 2017).

What was measured:
Assay type in all cases: physicochemical
[1] = Example 1: dissolved concentration after about one hour of sonication, then stirring at 5° C.; settings: sonicated about one hour, stirred at 5° C.
Experimental: L-leucovorin calcium (Merck) or racemic leucovorin calcium (Sigma) was added to water or aqueous sodium chloride (0.83%) and sonicated for about one hour. The mixtures were then stirred for about 20 hours at 5° C. The concentration of dissolved L-leucovorin calcium or racemic leucovorin calcium was determined at 15 min., 30 min., 1 hour, and 20 hours after sonication began.

[2] = Example 4: dissolved concentration after 1 hour of sonication, then stirring at 25° C.; settings: sonicated 1 hour, stirred at 25° C.
Experimental: L-leucovorin calcium (Merck) or racemic leucovorin calcium (Sigma) was added to water or aqueous sodium chloride (0.83%) and sonicated for 1 hour. The mixture was then stirred for an additional 19 hours 25° C. The concentration of dissolved L-leucovorin calcium or racemic leucovorin calcium was determined at 15 min., 30 min., 1 hour, or 20 hours after stirring began.

[3] = Example 5: dissolved concentration after sonication at 40° C. for about half an hour, then stirring at 25° C. for 20 hours; settings: sonicated at 40° C. about half an hour, stirred at 25° C.
Experimental: L-leucovorin calcium (Merck) or racemic leucovorin calcium (USP) was added to water or aqueous sodium chloride (0.83%) and sonicated at 40° C. for about half an hour. The mixture was then stirred at 25° C. for 20 hours. The concentration of dissolved L-leucovorin calcium or racemic leucovorin calcium was determined at two hours and 20 hours.

[4] = Example 3: dissolved concentration after sonication at 40° C., stirring at 5° C., nitrogen purge and sealed vial at 2 hours; settings: sonicated at 40° C., stirred at 5° C.
Experimental: L-leucovorin calcium (Merck) or racemic leucovorin (USP) calcium was added to water or aqueous sodium chloride (0.83%) and sonicated at 40° C. to dissolve the L-leucovorin calcium or racemic leucovorin calcium. The solutions were then stirred at 5° C. for 15 hours. At 2 hours, the solutions were purged with nitrogen gas and placed in a sealed vial. The concentration of dissolved L-leucovorin calcium or racemic leucovorin calcium was determined at two hours and 15 hours after sonication began.

[5] = Example 2: dissolved concentration after sonication at 40° C., then stirring at 5° C. for 20 hours; settings: sonicated at 40° C., stirred at 5° C.
Experimental: L-leucovorin calcium (Merck) or racemic leucovorin calcium (USP) was added to water or aqueous sodium chloride (0.83%) and sonicated at 40° C. to dissolve the L-leucovorin calcium or racemic leucovorin calcium. The solutions were then stirred at 5° C. for 20 hours. The concentration of dissolved L-leucovorin calcium or racemic leucovorin calcium was determined at 2 hours and 20 hours after stirring began.

[6] = Example 6: dissolved concentration after sonication at 40° C. for one hour, stirring at 25° C., nitrogen purge and sealed vial after 2 hours; settings: sonicated at 40° C. one hour, stirred at 25° C.
Experimental: L-leucovorin calcium (Merck) or racemic leucovorin (USP) calcium was added to water or aqueous sodium chloride (0.83%) and sonicated at 40° C. for one hour to dissolve the L-leucovorin calcium or racemic leucovorin calcium. The solutions were then stirred at 25° C. for an additional hour. After 2 hours, the solutions were purged with nitrogen and placed in a sealed vial. The mixtures were then stirred for an additional 18 hours. The concentration of dissolved L-leucovorin calcium or racemic leucovorin calcium was determined at two hours and 20 hours after sonication began.

| Assay (concentration of dissolved compound) ([1]; H2O, 15 min.) [mg/mL] | Assay (concentration of dissolved compound) ([1]; H2O, 30 min.) [mg/mL] | Assay (concentration of dissolved compound) ([1]; H2O, 1 hr) [mg/mL] | Assay (concentration of dissolved compound) ([1]; H2O, 20 hrs) [mg/mL] | Assay (concentration of dissolved compound) ([1]; NaCl (0.83%), 15 min.) [mg/mL] | Assay (concentration of dissolved compound) ([1]; NaCl (0.83%), 30 min.) [mg/mL] | Assay (concentration of dissolved compound) ([1]; NaCl (0.83%), 1 hr) [mg/mL] | Assay (concentration of dissolved compound) ([1]; NaCl (0.83%), 20 hrs) [mg/mL] | Assay (concentration of dissolved compound) ([2]; H2O, 15 min.) [mg/mL] | Assay (concentration of dissolved compound) ([2]; H2O, 30 min.) [mg/mL] | Assay (concentration of dissolved compound) ([2]; H2O, 1 hr) [mg/mL] | Assay (concentration of dissolved compound) ([2]; H2O, 20 hrs) [mg/mL] | Assay (concentration of dissolved compound) ([2]; NaCl (0.83%), 15 min.) [mg/mL] | Assay (concentration of dissolved compound) ([2]; NaCl (0.83%), 30 min.) [mg/mL] | Assay (concentration of dissolved compound) ([2]; NaCl (0.83%), 1 hr) [mg/mL] | Assay (concentration of dissolved compound) ([2]; NaCl (0.83%), 20 hrs) [mg/mL] | Assay (concentration of dissolved compound) ([3]; H2O, 20 hrs) [mg/mL] | Assay (concentration of dissolved compound) ([3]; NaCl (0.83%), 20 hrs) [mg/mL] | Assay (concentration of dissolved compound) ([4]; H2O, 2 hrs) [mg/mL] | Assay (concentration of dissolved compound) ([4]; H2O, 15 hrs) [mg/mL] | SMILES | also measured |
| --- | --- | --- | --- | --- | --- | --- | --- | --- | --- | --- | --- | --- | --- | --- | --- | --- | --- | --- | --- | --- | --- |
| 16.7 | 22.0 | 15.8 | 3.3 | 22.6 | 22.9 | 23.2 | 7.4 | 52.9 | 53.3 | 50.1 | 9.0 | 42.1 | 41.9 | 39.6 | 14.2 | – | – | – | – | Nc1nc(=O)c2c([nH]1)NCC(CNc1ccc(C(=O)N[C@@H](CCC(=O)[O-])C(=O)[O-])cc1)N2C=O.[Ca+2] (mixture of isomers) [Sigma Leucovorin Calcium, racemic leucovorin calcium] | – |
| – | – | – | – | – | – | – | – | – | – | – | – | – | – | – | – | 13.4 | 17.4 | 3.6 | 3.8 | Nc1nc(=O)c2c([nH]1)NCC(CNc1ccc(C(=O)N[C@@H](CCC(=O)[O-])C(=O)[O-])cc1)N2C=O.[Ca+2] (mixture of isomers) [USP Leucovorin Calcium, racemic leucovorin calcium] | Assay (concentration of dissolved compound) ([4]; NaCl (0.83%), 2 hrs): 8.4 mg/mL; Assay (concentration of dissolved compound) ([4]; NaCl (0.83%), 15 hrs): 8.6 mg/mL; Assay (concentration of dissolved compound) ([5]; H2O, 20 hrs): 4.2 mg/mL; Assay (concentration of dissolved compound) ([5]; NaCl (0.83%), 20 hrs): 7.2 mg/mL; Assay (concentration of dissolved compound) ([6]; H2O, 2 hrs): 10.1 mg/mL; Assay (concentration of dissolved compound) ([6]; H2O, 20 hrs): 10.8 mg/mL; Assay (concentration of dissolved compound) ([6]; NaCl (0.83%), 2 hrs): 16.1 mg/mL; Assay (concentration of dissolved compound) ([6]; NaCl (0.83%), 20 hrs): 17.1 mg/mL |
| 7.5 | 8.4 | 8.0 | 11.9 | 9.6 | 10.0 | 13.4 | 17.4 | 14.9 | 15.1 | 16.1 | 23.6 | 20.2 | 20.4 | 21.6 | 32.4 | 31.1 | 42.1 | 40.4 | 21.2 | Nc1nc(=O)c2c([nH]1)NCC(CNc1ccc(C(=O)NC(CCC(=O)O)C(=O)O)cc1)N2C=O [L-Leucovorin, L-leucovorin calcium] | Assay (concentration of dissolved compound) ([3]; H2O, 2 hrs): 31.9 mg/mL; Assay (concentration of dissolved compound) ([3]; NaCl (0.83%), 2 hrs): 42.3 mg/mL; Assay (concentration of dissolved compound) ([4]; NaCl (0.83%), 2 hrs): 49.2 mg/mL; Assay (concentration of dissolved compound) ([4]; NaCl (0.83%), 15 hrs): 35.6 mg/mL; Assay (concentration of dissolved compound) ([5]; H2O, 2 hrs): 31.9 mg/mL; Assay (concentration of dissolved compound) ([5]; H2O, 20 hrs): 26.2 mg/mL; Assay (concentration of dissolved compound) ([5]; NaCl (0.83%), 2 hrs): 42.3 mg/mL; Assay (concentration of dissolved compound) ([5]; NaCl (0.83%), 20 hrs): 39.6 mg/mL; Assay (concentration of dissolved compound) ([6]; H2O, 2 hrs): 40.4 mg/mL; Assay (concentration of dissolved compound) ([6]; H2O, 20 hrs): 42.3 mg/mL; Assay (concentration of dissolved compound) ([6]; NaCl (0.83%), 2 hrs): 49.2 mg/mL; Assay (concentration of dissolved compound) ([6]; NaCl (0.83%), 20 hrs): 53.1 mg/mL |
